Test results reported in ChEMBL document CHEMBL1201862, “PubChem BioAssay data set” (2004).
Activity calls are given as the source filed them.

Legend:
CAAX prenyl protease 2 = biological target: T1, CAAX prenyl protease 2 (Saccharomyces cerevisiae S288c, UniProt Q03530); format: biochemical
T1 sequence (Q03530 whole entry): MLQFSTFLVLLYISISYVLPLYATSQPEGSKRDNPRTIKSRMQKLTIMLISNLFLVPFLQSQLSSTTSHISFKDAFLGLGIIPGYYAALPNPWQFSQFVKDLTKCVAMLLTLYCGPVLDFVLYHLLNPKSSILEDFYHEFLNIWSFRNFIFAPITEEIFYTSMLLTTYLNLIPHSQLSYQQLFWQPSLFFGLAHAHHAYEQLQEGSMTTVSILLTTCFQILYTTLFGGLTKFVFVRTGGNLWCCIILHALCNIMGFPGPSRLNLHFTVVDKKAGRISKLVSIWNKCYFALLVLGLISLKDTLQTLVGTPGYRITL

[1] = biological target: Peroxisome proliferator-activated receptor gamma/Nuclear receptor coactivator 1 (Homo sapiens, UniProt P37231); assay: (§1) TR-FRET dose response biochemical High Throughput Screening assay for agonists of the steroid receptor coactivator 1 (SRC-1) recruitment by the peroxisome proliferator-activated receptor gamma (PPAR gamma): non-selective agonists. [Related pubchem assays (depositor defined):AID1300, AID1808, AID504735, AID631]; format: protein assay
[2] = biological target: Peroxisome proliferator-activated receptor gamma/Nuclear receptor coactivator 3 (Homo sapiens, UniProt P37231); assay: as §1, with “3 (SRC-3)” for “1 (SRC-1)”, “assays: 1301 (Confirmation screen.), 1048 (Primary screen.)]” for “assays (depositor defined):AID1300, AID1808, AID504735, AID631]”; format: functional
Chain of Peroxisome proliferator-activated receptor gamma/Nuclear receptor coactivator 3 (P37231 whole entry): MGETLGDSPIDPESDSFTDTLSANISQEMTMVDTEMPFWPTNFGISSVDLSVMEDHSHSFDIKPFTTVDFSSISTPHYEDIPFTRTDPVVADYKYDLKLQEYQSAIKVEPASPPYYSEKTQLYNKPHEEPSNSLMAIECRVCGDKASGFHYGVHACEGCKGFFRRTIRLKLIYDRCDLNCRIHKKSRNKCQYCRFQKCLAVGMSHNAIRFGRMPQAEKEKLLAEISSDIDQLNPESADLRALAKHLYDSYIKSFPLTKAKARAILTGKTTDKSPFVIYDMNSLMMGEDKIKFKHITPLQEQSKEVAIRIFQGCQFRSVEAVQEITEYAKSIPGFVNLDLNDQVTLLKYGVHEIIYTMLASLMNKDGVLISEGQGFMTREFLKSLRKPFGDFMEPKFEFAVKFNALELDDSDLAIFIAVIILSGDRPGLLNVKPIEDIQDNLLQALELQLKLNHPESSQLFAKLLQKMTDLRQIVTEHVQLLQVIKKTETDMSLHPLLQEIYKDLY
Chain of Peroxisome proliferator-activated receptor gamma/Nuclear receptor coactivator 3 (Q9Y6Q9 whole entry, further chain): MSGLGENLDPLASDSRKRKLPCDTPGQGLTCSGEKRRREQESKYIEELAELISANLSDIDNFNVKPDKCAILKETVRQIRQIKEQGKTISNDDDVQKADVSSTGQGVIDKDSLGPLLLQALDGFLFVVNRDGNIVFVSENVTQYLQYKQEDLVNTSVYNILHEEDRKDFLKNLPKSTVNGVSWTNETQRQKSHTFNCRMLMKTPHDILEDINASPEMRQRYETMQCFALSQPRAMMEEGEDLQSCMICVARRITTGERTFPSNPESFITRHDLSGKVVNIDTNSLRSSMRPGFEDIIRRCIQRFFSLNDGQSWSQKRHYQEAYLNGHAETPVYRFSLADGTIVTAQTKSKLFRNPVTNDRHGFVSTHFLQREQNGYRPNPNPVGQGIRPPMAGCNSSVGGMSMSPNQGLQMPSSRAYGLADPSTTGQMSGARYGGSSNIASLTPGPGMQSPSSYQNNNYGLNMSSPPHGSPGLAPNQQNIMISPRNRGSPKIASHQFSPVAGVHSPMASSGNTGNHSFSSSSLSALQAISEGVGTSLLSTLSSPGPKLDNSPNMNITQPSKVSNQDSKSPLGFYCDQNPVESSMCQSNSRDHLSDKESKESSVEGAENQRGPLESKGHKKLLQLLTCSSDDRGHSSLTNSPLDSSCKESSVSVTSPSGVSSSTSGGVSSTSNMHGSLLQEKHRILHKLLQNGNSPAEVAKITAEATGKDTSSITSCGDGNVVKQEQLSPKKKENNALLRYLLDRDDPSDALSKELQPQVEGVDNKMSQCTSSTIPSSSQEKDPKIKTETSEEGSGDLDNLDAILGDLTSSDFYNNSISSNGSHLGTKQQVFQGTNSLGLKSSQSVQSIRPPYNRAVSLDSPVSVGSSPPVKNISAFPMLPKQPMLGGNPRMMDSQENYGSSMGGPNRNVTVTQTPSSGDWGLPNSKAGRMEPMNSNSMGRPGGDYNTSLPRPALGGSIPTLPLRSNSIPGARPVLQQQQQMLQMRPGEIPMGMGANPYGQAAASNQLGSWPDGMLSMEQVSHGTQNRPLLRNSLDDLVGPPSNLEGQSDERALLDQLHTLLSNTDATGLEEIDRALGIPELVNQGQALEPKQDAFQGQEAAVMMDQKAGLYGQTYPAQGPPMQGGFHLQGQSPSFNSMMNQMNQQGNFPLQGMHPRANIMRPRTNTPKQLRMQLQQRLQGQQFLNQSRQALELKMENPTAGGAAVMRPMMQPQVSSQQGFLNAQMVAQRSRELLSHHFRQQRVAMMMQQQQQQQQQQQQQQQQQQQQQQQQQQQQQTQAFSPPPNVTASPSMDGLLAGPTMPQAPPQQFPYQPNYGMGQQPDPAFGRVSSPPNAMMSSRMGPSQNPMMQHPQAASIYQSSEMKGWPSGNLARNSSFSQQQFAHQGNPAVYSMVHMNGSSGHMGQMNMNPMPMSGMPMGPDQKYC

[3] = biological target: Peroxisome proliferator-activated receptor gamma/Nuclear receptor coactivator 2 (Homo sapiens, UniProt P37231); assay: TR-FRET dose response biochemical High Throughput Screening assay for agonists of the steroid receptor coactivator 2 (SRC-2) recruitment by the peroxisome proliferator-activated receptor gamma (PPAR gamma): non-selective agonists. [Related pubchem assays: 1297, 1032 ]; format: functional
Chain of Peroxisome proliferator-activated receptor gamma/Nuclear receptor coactivator 2 (P37231 whole entry): as the sequence (P37231 whole entry) above
Chain of Peroxisome proliferator-activated receptor gamma/Nuclear receptor coactivator 2 (Q15596 whole entry, further chain): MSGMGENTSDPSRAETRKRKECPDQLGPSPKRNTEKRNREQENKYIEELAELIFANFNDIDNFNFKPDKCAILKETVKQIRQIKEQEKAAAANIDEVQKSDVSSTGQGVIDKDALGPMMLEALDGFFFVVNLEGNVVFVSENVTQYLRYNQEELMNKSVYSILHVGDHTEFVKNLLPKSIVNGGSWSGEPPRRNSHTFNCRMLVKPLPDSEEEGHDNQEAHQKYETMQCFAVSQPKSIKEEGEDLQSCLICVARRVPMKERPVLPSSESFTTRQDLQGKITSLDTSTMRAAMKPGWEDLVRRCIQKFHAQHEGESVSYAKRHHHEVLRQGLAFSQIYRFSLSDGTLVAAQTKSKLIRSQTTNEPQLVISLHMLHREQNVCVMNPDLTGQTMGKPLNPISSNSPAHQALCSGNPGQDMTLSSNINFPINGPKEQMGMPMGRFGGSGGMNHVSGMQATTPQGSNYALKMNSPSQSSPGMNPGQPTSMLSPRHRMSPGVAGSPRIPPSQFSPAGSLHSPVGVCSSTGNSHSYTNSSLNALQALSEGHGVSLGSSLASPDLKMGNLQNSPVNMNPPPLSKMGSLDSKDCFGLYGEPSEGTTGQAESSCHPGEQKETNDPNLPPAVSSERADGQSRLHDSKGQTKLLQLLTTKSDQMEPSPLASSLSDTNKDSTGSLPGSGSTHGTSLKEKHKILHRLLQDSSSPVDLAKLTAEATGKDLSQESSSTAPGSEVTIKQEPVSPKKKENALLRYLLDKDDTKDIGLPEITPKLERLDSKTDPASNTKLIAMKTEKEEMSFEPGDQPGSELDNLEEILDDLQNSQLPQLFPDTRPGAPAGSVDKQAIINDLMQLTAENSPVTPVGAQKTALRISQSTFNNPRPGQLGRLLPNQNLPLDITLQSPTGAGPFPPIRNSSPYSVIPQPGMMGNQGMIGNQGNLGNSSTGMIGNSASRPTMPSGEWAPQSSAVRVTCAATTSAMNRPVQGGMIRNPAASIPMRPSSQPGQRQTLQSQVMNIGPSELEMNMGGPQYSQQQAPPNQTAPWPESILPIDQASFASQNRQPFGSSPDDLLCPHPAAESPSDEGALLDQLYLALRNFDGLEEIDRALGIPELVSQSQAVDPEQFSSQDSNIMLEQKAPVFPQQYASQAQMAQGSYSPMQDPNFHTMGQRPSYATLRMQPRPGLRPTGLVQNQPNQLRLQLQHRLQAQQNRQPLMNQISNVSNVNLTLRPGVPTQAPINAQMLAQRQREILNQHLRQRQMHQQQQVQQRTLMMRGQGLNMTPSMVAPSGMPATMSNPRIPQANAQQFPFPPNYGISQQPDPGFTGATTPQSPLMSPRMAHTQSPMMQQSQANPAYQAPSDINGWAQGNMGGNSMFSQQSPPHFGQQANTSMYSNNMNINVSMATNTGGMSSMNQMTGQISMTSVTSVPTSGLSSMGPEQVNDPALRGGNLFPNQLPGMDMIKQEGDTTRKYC

[4] = biological target: Glyceraldehyde-3-phosphate dehydrogenase (Homo sapiens, UniProt P04406)
Chain of Glyceraldehyde-3-phosphate dehydrogenase (P04406 whole entry): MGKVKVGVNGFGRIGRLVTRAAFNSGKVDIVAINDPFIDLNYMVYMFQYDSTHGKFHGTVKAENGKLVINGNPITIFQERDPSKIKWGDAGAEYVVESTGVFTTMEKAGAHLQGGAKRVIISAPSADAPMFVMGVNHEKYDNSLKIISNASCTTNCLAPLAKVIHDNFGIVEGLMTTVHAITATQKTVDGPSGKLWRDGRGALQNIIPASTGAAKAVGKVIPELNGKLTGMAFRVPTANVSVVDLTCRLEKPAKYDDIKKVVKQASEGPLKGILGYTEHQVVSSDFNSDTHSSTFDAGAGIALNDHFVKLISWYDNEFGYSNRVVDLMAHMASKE

[5] = biological target: T2, Alkaline phosphatase, tissue-nonspecific isozyme (Homo sapiens, UniProt P05186); assay: human TNAP enzyme inhibitors, SAR follow-up, biochemical, luminescent, dose response (AID 1056)
T2 sequence (P05186 whole entry): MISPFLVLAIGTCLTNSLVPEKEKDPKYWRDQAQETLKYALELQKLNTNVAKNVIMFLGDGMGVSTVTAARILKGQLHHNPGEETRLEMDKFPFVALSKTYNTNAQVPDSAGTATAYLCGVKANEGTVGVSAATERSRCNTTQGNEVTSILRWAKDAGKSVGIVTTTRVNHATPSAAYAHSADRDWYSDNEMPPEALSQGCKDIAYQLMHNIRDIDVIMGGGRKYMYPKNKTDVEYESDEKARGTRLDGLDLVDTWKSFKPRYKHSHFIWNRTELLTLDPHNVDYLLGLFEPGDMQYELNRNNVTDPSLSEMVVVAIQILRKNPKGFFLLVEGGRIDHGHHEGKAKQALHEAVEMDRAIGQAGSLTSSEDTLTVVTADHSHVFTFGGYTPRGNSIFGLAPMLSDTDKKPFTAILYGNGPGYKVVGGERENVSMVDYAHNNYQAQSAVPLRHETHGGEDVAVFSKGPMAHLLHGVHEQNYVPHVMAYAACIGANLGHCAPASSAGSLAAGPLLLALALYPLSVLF

HeLa = assay: HeLa cell cytotoxicity, dose response, cytotoxicity control, 24 h, cherry-picked samples (AID 504726); format: functional, cell-based; conditions: Homo sapiens;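 note: potency for cytotoxicity as loss of luminescence signal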
ORF 73 = biological target: T3, ORF 73 (Human herpesvirus 8, UniProt O40947); assay: inhibitors of C-LANA binding to LBS DNA, dose response, biochemical, fluorescence polarization, cherry-picked samples (AID 504725); parameters: species or system Human gammaherpesvirus 8;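 note: fluorescence polarization of a labeled DNA duplex reporting LANA DNA binding; potency is for inhibitors that block LANA binding to the DNA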
T3 sequence (O40947 whole entry): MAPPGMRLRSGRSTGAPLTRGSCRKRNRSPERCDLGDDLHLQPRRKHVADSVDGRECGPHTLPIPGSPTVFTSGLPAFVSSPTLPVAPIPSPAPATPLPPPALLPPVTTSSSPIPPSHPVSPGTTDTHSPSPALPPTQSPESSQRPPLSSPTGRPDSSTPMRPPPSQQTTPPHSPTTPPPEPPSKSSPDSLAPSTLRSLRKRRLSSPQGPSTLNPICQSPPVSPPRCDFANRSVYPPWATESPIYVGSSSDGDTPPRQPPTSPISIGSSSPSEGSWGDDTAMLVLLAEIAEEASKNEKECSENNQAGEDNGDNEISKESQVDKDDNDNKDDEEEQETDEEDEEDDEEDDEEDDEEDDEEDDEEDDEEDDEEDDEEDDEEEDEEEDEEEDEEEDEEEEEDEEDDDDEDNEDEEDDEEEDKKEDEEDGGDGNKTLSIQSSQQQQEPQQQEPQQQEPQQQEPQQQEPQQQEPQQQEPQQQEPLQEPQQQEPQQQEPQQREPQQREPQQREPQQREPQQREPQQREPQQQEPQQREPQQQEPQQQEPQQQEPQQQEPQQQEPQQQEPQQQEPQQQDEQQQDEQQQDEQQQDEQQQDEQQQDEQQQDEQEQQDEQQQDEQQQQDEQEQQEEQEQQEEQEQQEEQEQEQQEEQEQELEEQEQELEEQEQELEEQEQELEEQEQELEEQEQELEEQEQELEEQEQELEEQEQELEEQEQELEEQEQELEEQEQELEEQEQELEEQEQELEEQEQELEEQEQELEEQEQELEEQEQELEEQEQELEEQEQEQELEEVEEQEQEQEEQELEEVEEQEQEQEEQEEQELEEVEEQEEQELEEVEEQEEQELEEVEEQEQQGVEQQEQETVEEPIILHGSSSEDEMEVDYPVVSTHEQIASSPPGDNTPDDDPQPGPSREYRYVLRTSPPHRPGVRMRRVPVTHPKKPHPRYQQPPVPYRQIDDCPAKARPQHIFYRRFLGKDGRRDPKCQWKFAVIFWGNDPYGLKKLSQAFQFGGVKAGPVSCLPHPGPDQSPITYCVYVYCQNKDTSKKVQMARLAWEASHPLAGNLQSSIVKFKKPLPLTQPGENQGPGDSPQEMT

Nonstructural protein 1 = Nonstructural protein 1 (Influenza A virus, UniProt Q194T2); format: functional, Influenza A virus (A/California/07/2009(H1N1))
Chain of Nonstructural protein 1 (Q194T2 whole entry): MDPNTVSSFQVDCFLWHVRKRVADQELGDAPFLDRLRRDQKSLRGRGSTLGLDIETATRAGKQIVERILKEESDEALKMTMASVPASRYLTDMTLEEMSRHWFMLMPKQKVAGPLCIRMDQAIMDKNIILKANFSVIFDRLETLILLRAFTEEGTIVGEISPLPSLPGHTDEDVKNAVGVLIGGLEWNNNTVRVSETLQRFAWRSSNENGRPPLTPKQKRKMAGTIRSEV

Insulin-degrading enzyme [6] = biological target: T4, Insulin-degrading enzyme (Homo sapiens, UniProt P14735); assay: activators of recombinant IDE enzyme, dose response, counter-screen for IDE activator project, biochemical, fluorescence polarization (AID 588681)
T4 sequence (P14735 whole entry): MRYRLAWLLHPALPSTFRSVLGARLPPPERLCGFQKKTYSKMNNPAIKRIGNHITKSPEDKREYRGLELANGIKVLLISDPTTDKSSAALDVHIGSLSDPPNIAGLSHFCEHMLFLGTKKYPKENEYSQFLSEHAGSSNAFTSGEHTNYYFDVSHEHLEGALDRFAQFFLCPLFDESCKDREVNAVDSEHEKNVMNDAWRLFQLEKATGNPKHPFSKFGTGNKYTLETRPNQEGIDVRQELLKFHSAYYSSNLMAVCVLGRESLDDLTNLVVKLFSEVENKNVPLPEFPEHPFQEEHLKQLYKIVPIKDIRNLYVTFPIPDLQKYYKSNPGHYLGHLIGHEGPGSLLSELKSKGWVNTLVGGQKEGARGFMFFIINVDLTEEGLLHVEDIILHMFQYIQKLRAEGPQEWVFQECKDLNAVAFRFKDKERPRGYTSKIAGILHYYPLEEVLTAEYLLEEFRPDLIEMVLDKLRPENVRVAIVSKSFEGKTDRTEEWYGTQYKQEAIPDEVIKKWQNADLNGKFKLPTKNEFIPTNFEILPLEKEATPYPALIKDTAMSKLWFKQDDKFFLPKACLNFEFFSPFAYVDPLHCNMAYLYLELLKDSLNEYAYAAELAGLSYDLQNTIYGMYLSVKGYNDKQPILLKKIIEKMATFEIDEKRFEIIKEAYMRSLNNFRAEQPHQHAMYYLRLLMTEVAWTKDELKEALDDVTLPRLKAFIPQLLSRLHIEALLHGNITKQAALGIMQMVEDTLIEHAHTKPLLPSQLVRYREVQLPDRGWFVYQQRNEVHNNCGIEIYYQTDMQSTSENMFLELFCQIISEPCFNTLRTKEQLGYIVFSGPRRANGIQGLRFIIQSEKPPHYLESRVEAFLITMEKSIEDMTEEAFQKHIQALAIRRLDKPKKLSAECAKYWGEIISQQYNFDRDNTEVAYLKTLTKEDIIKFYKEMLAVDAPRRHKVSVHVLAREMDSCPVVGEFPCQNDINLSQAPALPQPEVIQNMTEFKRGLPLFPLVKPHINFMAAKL

Insulin-degrading enzyme [7] = biological target: T4, Insulin-degrading enzyme; assay: activators of endogenous IDE in HEK cells, dose response, cell-based, fluorescence polarization (AID 588439); format: functional
HEK293 [8] = assay: HEK cell cytotoxicity by LDH release, dose response, cytotoxicity control for IDE activator project, fluorescence, HEK cells (AID 588440); format: functional, cell-based; conditions: Homo sapiens;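 note: cytotoxicity by LDH release measuring loss of membrane integrity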
HEK293 [9] = assay: optical interference in Abeta FP readout, dose response, artefact control for IDE activator project, biochemical, fluorescence polarization (AID 588442); format: functional, cell-based; conditions: Homo sapiens
[10] = HeLa cell cytotoxicity, dose response, cytotoxicity control for MgcRacGAP inhibitor project (AID 624300); format: functional
[11] = biological target: T5, Rac GTPase-activating protein 1 (Homo sapiens, UniProt Q9H0H5); assay: MgcRacGAP GTPase-activating activity inhibitors, confirmation, biochemical, ADP Hunter fluorescence, primary and confirmatory (AID 624330); format: functional
T5 sequence (Q9H0H5 whole entry): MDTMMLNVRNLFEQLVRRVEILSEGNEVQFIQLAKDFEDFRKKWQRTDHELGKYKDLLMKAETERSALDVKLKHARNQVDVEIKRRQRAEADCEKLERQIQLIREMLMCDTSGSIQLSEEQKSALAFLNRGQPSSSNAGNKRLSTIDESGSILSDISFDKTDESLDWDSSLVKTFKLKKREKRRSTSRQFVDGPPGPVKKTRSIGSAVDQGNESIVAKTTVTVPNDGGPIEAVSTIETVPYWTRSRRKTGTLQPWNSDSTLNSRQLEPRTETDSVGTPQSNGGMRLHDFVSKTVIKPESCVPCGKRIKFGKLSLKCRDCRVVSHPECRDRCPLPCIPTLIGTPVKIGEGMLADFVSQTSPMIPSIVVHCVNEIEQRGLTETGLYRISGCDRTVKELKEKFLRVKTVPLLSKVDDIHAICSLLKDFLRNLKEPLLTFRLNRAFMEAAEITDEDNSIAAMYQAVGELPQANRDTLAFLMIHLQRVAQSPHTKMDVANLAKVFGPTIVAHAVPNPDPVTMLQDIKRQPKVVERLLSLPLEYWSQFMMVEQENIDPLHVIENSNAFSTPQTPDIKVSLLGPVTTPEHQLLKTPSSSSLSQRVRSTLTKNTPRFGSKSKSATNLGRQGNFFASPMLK

CCCn1c(O)c(N=NC(=O)CNC(=O)Cc2ccc(OC)cc2)c2ccccc21
AC50 (CAAX prenyl protease 2): > 100 µM (inactive)

O=C(CSc1ncnc2c1oc1ccccc12)Nc1nc2ccccc2s1
EC50 [1]: > 79.4 µM (inactive)
EC50 [2]: > 79.4 µM (not active)
EC50 [3]: > 79.4 µM (not active)

Cc1c(C(=O)O)nnn1-c1ccc(F)cc1
IC50 [4]: > 100 µM (not active)
IC50 [5]: > 100 µM (inactive)

Nc1ccc2c3[nH]c4cc(N)ccc4cc-3nc2c1
AC50 (HeLa): 7.72 µM (active)
AC50 (ORF 73): 0.758 µM (active)
IC50 (Nonstructural protein 1): 21.1 µM (active)
EC50 (Insulin-degrading enzyme [6]): > 54.7 µM (inactive)
EC50 (Insulin-degrading enzyme [7]): > 54.7 µM (inactive)
IC50 (HEK293 [8]): > 89.2 µM (inactive)
EC50 (HEK293 [9]): > 54.7 µM (inactive)
CC50 [10]: 8.81 µM (active)
IC50 [11]: 44.7 µM (active)
